This note sets out measurements from publication PMC6511062, “Preclinical candidate for the treatment of visceral leishmaniasis that acts through proteasome inhibition” (Proceedings of the National Academy of Sciences of the …, 2019).

A short description of data set [1]: Pharmacokinetics in male beagle dogs. Type of data set: in vivo, dog. How it is done: 5. Intrinsic clearance (CLint) […]
6. Pharmacokinetic studies.
Mouse pharmacokinetic studies were conducted in male CD-1 mice and male beagle dogs. 3 animals per group were used for each study performed.
A dose of 3 mg/kg was administered intravenously, in a bolus form to mice and infused over a 30 min period to dogs. For all the intravenous studies compound were dissolved in 5% DMSO/20% kleptose in saline.
A dose of 10 mg/kg was orally administered by gavage to the two species in a suspension of 1% methylcellulose to investigate oral pharmacokinetics.
Peripheral blood samples were obtained at 5, 15, 30 min, 1, 2, 4, 6 ,8 and 24 h after intravenous administration and 15, 30, 45 min,1, 2, 4, 6, 8 and 24 h after oral administration. Blood was 1/2 diluted with milliQ water and immediately frozen on dry ice until analysis. Quantification was performed by means of LC-MS/MS (API4000), with a lower limit of quantification of 1 ng/mL.
Pharmacokinetic parameters, namely clearance (CL), volume of distribution at steady state (Vss) and bioavailability (F%), were estimated using Phoenix, WinNonLin […]
Data analysis and calculation of pharmacokinetic parameters was performed using Phoenix, WinNonLin Version 6.3.
Following the intravenous administration, the whole blood clearance was calculated

For data set [2], the system named is L. donovani (LV9). Nature of the data set: Mouse model of VL (in vivo efficacy in female Balb/C mice). The arrangement: species or system Leishmania donovani. The conditions noted are these: 50 mg/kg b.i.d. (10 days PO).
For data set [3], the system named is ubiquitylated proteins in L. donovani axenic amastigotes. As to the kind of experiment: Western blot of ubiquitylated proteins in axenic amastigotes. The data set is classed as cell-based, Leishmania donovani. The settings on record: dose-dependent. The procedure:
k. Proteasome activity assays
Compounds were dispensed into black 384-well assay plates (Greiner) by acoustic dispensing (LabCyte ECHO). For potency determinations, eleven-point, one in three dilution curves were generated, with a top concentration of 100 µM. Three proteasome activities were measured using a commercially available indirect enzyme-based luminescent assay kit (Promega) with Suc-LLVY-aminoluciferin, Z-LRR-aminoluciferin and Z-nLPnLD-aminoluciferin used as substrates for chymotrypsin-like, trypsin-like and caspase-like activities, respectively. In addition to proteasome samples: L. donovani and THP1-enriched proteasomes, commercially available human purified 26S proteasome (Boston Biochem) was also assessed. Proteasome final assay concentration were 0.025 mg/ml for L. donovani and THP1-enriched proteasomes and 1 nM for human purified 26S proteasome. […]
Substrate solution was then added and after 30 min of incubation luminescent signal was measured in an Envision reader (PerkinElmer). […]
value) were used as negative and positive controls, respectively. […] Protein concentrations were determined by standard Bradford assays and Laemmli sample buffer was added to samples. […]
Figure S6. […] Ubiquitin proteins were detected using the human anti-ubiquitin P4D1 antibody diluted 1:1,000. […]

Where [4] appears, read: male, beagle, whole blood, dog, 3 mg/kg iv 0.5 h infusion.

The structures appear in SMILES notation. Entries after “also recorded” stand apart in the source; their conditions may differ.

As to `O=C(Nc1ccc(F)c(-c2ccn3c(N4CCOCC4)cnc3n2)c1)N1CCCC1` [Compound 8], in data set [1] (dog), the blood clearance was found to be 30 mL/min per kilogram. Further, the “Cl (%LBF)” value in data set [1] (dog, 3 mg/kg iv) came to 53%. This compound also registered a volume of distribution (Vss) in data set [1] (dog, 3 mg/kg iv 0.5 h infusion, 3 mg/kg) of 1.3 L/kg. The Vd in data set [1] (male, beagle, dog, whole blood, iv, 3 mg/kg, dog, 3 mg/kg iv 0.5 h infusion, read-out: Vss) is 1.34 ± 0.381 L/kg. In addition, in data set [1] (setting [4]), the clearance came out at 29.6 ± 6.06 mL/min/kg and the half-life was 31.2 ± 4.8 min. For the same compound, the bioavailability in data set [1] (whole blood, Beagle male dog, 10 mg/kg po, read-out: F (oral bioavailability)) worked out at 46%. Moreover, the “Reduction in parasite burden (compared to the vehicle control group)” value in data set [2] turned out to be 99.1%. In addition, the “accumulation of ubiquitylated proteins” value in data set [3] is recorded as “dose-dependent manner; also recorded: induces the accumulation of ubiquitylated proteins”.

Usually Vss stands for a proportionality between amount in the body and measured concentration, not a real space. A lower Vss goes with little distribution into tissue. In general, clearance refers to the volume of plasma or blood freed of the substance per unit of time. Read a low clearance as inefficient removal. For orientation: half-life means the time in which the quantity being followed falls by half. Low readings indicate rapid decline, high ones slow decline. The term bioavailability denotes the share of a dose that reaches the circulation, judged against a reference dose that is usually intravenous.
